US20240208953A1, “"Cyclopenta[c]pyrrol Negative Allosteric Modulators of NR2B"” (Novartis AG, priority 2021, published 2024)

What was measured:
P-glycoprotein (P-gp) = P-glycoprotein (P-gp) (Homo sapiens (Human), UniProt P08183); experiment: MDCK-MDR1 permeability / efflux assay; type: in vitro ADME; conditions: for efflux ratio at 120 min, 10 μM: dog, MDCK-MDR1, pH 7.4, efflux ratio, read-out: MDCK-MDR1 ER
Procedure: Example 4. Experimental Measurement of Efflux with MDCK-MDR1 Protocol
Cell Culture. MDCK-MDR1 cells were cultured at 37° C. under a 5% CO2 atmosphere, at 95% relative humidity in DMEM containing 10% FBS, penicillin-streptomycin (100 μg/mL), and 2 mM Ala-Gln. Cells were passaged every 3-4 days. For assay purposes, cells were seeded at a density of approximately 265,000 cells/cm^2 of a 96-well Transwell plate (Corning Life Sciences, Acton, MA) and cultured in the same media noted above for a period of 4 days.
Assay. The determination of the apparent permeability (Papp) was performed in both the A→B (apical to basal) and B→A (basal to apical) directions where each compound was assayed in triplicate. The zwitterion bestatin, a poorly permeably compound, was used as marker of monolayer integrity. To initiate the assay, media was aspirated, and the cells and basal chambers were washed three times with Hank's Balanced Salt Solution (HBSS) containing 10 mM HEPES (pH 7.4). Compound test solutions were prepared in triplicate in HBSS containing 10 mM HEPES (pH 7.4) and 0.02% bovine serum albumin (BSA) to a final concentration of 10 μM and centrifuged for 2 min at 4000×g, then applied to the donor compartment at time zero. Additionally, at time zero, a 37° C. solution without test articles (HBSS+10 mM HEPES (pH 7.4) plus 0.02% BSA) was added to the receiver chamber of the Transwell plate. A time zero sample of the donor solution was also sampled for further analysis. The assay was conducted for a period of 120 min at 37° C. without shaking. At the time of assay termination, samples were taken from each donor compartment, and each acceptor compartment of the Transwell plate. To each of the 0 and 120 min samples was added an internal standard solution containing glyburide in water:acetonitrile, 50:50 (v:v). Concentration curves were prepared using a Labcyte Echo in the same matrix noted above. Samples and concentration curve samples were centrifuged for 10 min at 4000×g and subsequently analyzed by mass spectroscopy.
Mass Spectroscopy. Assay samples were loaded onto a RapidFire C4 cartridge by means of a RapidFire autosampler (Agilent, Santa Clara, CA). […] Mass spectroscopy was performed using an AB Sciex AP15500 (Sciex, Frammingham, MA) equipped with a turbo ion spray source. The analyte concentration was calculated from the chromatographic peak area ratio of analyte to internal standard (glibenclamide, m/z 494→169), using Multiquant software V3.0 (Sciex, Framingham, MA).
Calculations. Papp values were determined as
Percent recovery values were determined as:
where VA is the volume of the acceptor (mL), S is the surface area of the membrane, D0 is the donor solution concentration at t=0, D120 is the donor solution concentration at t=120, A120 is the acceptor solution concentration at t=120, and t=time (seconds).
The suitability of a compound for oral dosing and/or for use as a CNS therapeutic is usually conducted by MDCK-MDR1 permeability assay to investigate its drug efflux potential mediated by P-glycoprotein (P-gp). MDCK-MDR1 permeability has been used as a predictor of blood brain barrier permeability in terms of efflux ratio (ER).

NR2B = NR2B (Rattus norvegicus (Rat), UniProt Q00960); experiment: NR2B rat cortical neuron calcium influx assay; type: cell-based; conditions: rat cortical neurons, glutamate and glycine stimulated calcium influx
Text: Example 1: NR2B Rat Cortical Neuron Calcium Influx Assay Protocol
Embryonic day 18 timed pregnant Sprague Dawley rats were euthanized according to Institutional Animal Care and Use Committee (IACUC) protocol. After cutting medially through the skin and exposing the uterus and embryos, fetuses were removed and placed in cold Hibernate medium. Each embryo's brain was extracted and cerebral cortices were isolated by removing the midbrain and meninges. The dissected cortices were then dissociated into the neurons using papain dissociation system (Worthington Biochemical Corporation) according the manufacturer's protocol.
Dissociated neurons were counted and plated into 384-well poly-D-lysine coated plates (Corning® BioCoat™) at a density of 20,000 cells/well in 30 μL of Neurobasal/B27 complete medium. Neurons were cultured at 37° C. for 2 days. On the assay day, medium was removed and cells were incubated with 20 μL/well of calcium dye (Calcium 6 Assay Kit, Molecular Devices) suspended in HBSS with 1.8 mM Ca^2+ (Ca-HBSS) according to the manufacturer's instruction.
Compounds of interest from 10 mM stock were serially diluted into 3× of desired concentrations in 1.8 mM Ca-HBSS, and 10 μL were added to the wells. Compound and the neurons were incubated at 37° C. for 2 hours in the dark.
On FDSS7000EX (Hamamatsu Photonics), a fluorescence measuring instrument, 10 μL of 4× ligand solution containing glutamate and glycine made in 1.8 mM Ca^2+-HBSS were added to each well. The fluorescent signals were collected before and after the addition of ligands for a total of 2 minutes. The data were converted to a ratio of the peak fluorescence to the fluorescence at the beginning of the measurement.
Each data point was measured in duplicates. Dose response curves were used to identify IC50 and maximal inhibition values. IC50 represents the concentration in μM of compound at which there is a half-maximal compound effect. Maximal inhibition of a compound is expressed as a percent of the highest inhibition of activity over a no compound control.

Chain of P-glycoprotein (P-gp) (P08183 whole entry): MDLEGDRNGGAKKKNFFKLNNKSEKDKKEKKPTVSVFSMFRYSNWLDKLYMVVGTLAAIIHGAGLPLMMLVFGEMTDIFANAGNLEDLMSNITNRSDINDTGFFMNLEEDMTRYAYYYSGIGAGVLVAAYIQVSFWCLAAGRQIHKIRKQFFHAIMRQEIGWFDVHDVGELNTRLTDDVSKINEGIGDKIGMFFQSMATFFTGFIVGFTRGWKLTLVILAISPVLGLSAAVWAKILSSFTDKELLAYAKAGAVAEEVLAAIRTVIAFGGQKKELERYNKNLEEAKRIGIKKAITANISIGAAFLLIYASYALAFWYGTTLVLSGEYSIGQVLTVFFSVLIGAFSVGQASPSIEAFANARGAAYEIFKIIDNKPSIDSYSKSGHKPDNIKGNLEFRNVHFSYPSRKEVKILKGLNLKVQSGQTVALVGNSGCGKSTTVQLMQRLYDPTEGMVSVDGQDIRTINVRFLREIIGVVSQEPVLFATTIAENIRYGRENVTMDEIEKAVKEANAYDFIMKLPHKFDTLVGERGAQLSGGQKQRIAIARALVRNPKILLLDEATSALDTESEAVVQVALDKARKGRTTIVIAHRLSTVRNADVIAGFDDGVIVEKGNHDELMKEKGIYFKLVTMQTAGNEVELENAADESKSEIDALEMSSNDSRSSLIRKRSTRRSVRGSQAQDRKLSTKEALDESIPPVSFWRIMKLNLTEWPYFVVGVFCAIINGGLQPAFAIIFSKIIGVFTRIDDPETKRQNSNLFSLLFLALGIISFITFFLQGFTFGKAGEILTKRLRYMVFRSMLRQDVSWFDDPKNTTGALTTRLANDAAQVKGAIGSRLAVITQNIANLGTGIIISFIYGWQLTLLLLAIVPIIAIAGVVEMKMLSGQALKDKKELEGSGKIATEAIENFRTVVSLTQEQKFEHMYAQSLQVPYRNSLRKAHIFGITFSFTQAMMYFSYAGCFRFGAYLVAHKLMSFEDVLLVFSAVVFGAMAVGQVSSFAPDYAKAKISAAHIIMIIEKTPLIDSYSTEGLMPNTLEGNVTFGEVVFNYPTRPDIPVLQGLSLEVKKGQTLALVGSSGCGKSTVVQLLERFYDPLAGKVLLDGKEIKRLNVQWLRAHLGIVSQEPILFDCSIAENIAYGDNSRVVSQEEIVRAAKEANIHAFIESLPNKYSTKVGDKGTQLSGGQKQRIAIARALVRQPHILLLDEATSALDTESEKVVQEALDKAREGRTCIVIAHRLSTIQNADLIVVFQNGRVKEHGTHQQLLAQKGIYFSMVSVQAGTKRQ
Chain of NR2B (Q00960 27-1482, other chains not shown): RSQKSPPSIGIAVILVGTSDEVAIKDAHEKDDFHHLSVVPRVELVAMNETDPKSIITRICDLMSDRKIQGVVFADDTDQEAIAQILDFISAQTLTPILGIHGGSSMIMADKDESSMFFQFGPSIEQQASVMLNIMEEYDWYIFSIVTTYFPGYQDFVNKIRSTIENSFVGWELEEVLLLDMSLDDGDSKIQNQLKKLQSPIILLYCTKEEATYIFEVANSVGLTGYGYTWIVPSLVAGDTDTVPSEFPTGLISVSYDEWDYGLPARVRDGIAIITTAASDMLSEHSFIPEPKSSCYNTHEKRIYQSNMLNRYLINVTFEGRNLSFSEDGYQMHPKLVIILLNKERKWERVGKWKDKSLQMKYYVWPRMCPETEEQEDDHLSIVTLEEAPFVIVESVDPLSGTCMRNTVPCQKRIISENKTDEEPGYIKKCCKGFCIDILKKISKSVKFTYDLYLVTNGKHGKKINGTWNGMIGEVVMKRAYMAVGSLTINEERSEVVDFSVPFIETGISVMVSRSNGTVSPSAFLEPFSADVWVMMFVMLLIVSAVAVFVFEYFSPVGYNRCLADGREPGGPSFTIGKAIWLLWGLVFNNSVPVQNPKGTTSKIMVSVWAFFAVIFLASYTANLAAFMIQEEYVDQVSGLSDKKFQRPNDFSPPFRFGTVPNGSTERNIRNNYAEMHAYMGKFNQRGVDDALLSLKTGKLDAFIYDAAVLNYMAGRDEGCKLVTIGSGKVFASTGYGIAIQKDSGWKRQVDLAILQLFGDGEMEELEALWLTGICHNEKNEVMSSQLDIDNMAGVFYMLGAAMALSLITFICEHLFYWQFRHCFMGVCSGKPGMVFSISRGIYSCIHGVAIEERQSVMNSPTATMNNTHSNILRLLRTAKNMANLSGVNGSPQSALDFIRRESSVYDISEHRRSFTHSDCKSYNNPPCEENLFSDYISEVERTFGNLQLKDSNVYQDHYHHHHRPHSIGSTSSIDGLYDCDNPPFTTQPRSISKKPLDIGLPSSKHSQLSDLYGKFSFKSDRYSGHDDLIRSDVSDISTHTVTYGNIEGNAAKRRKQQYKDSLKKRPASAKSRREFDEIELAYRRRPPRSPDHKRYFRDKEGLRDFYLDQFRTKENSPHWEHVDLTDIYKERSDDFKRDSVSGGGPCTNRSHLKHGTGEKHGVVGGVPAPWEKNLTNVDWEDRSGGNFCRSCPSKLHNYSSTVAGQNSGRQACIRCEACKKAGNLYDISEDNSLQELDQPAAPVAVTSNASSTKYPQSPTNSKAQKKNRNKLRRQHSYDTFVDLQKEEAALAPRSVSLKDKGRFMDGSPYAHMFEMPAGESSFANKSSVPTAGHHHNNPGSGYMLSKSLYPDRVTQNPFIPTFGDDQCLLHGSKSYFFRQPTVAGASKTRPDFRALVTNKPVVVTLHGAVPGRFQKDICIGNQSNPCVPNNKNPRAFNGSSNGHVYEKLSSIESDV

Q: Which efflux ratio at 120 min, 10 μM (P-glycoprotein (P-gp)) does the source give for `O=C1CCc2cc([C@@H](O)CN3C[C@H]4C[C@H](Oc5ccccc5F)C[C@@]4(O)C3)ccc2N1` [Example 5A, 6-((R)-2-((3aS,5S,6aR)-5-(2-fluorophenoxy)-3a-hydroxyhexahydrocyclopenta[c]pyrrol-2(1H)-yl)-1-hydroxyethyl)-3,4-dihydroquinolin-2(1H)-one] here?
A: 1.05

Q: What about the IC50 (NR2B) of the same molecule?
A: 38 nM

Q: Which results are given for `O=C1Cc2cc([C@H](O)CN3C[C@@H]4C[C@@H](Oc5ccccc5)[C@@H](O)[C@]4(O)C3)ccc2N1` [Example 3B]?
A: MDCK-MDR1 ER (P-glycoprotein (P-gp); efflux ratio, 10 μM, 120 min): 6.36; IC50 (NR2B): > 10000 nM

Q: Which results are given for `O=C1CCc2cc([C@@H](O)CN3C[C@@H]4C[C@@H](Oc5ccccc5)[C@@H](O)[C@]4(O)C3)ccc2N1` [Example 4C, 6-((R)-2-((3aR,4R,5R,6aS)-3a,4-dihydroxy-5-phenoxyhexahydrocyclopenta[c]pyrrol-2(1H)-yl)-1-hydroxyethyl)-3,4-dihydroquinolin-2(1H)-one]?
A: efflux ratio at 120 min, 10 μM (P-glycoprotein (P-gp)): 6.75; IC50 (NR2B): 3050 nM

Q: Which efflux ratio at 120 min, 10 μM (P-glycoprotein (P-gp)) does the source give for `O=C1CCc2cc([C@H](O)CN3C[C@@H]4C[C@@H](Oc5cccc(F)c5F)C[C@]4(O)C3)ccc2N1` (single isomer, unassigned) [Example 24D] here?
A: 2.64

Q: What about the IC50 (NR2B) of the same molecule?
A: 0.056 nM

Q: Which results are given for `O=C1COc2cc([C@H](O)CN3C[C@H]4C[C@H](Oc5ccccc5)C[C@@]4(O)C3)cc(F)c2N1` (single isomer, unassigned) [Example 13B]?
A: efflux ratio at 120 min, 10 μM (P-glycoprotein (P-gp)): 1.11; IC50 (NR2B): 57 nM

Q: How did the efflux ratio at 120 min, 10 μM (P-glycoprotein (P-gp)) turn out when `O=C1Nc2cc(F)c([C@H](O)CN3C[C@H]4C[C@H](Oc5ccccc5)C[C@@]4(O)C3)cc2CO1` (single isomer, unassigned) [Example 36B] was run?
A: 2.44

Q: And the IC50 (NR2B)?
A: 1.5 nM

Q: Which results are given for `O=c1[nH]c2ccc([C@@H](O)CN3C[C@H]4C[C@H](Oc5ccccc5F)C[C@@]4(O)C3)cc2s1` (single isomer, unassigned) [Example 18A]?
A: efflux ratio at 120 min, 10 μM (P-glycoprotein (P-gp)): 1.61; IC50 (NR2B): < 0.0021 nM

Q: With `O[C@@H](CN1C[C@H]2C[C@H](Oc3ccccc3F)[C@H](O)[C@@]2(O)C1)c1cnc2[nH]ccc2c1` (single isomer, unassigned) [Example 44A] as the molecule, how does the efflux ratio at 120 min, 10 μM (P-glycoprotein (P-gp)) read?
A: 6.09

Q: What about the IC50 (NR2B) of the same molecule?
A: 170 nM

Q: Which efflux ratio at 120 min, 10 μM (P-glycoprotein (P-gp)) does the source give for `O=C1Nc2ccc([C@H](O)CN3C[C@H]4C[C@H](Oc5ccccc5F)C[C@@]4(O)C3)cc2CS1` (single isomer, unassigned) [Example 15B] here?
A: 1.92

Q: And the IC50 (NR2B)?
A: 0.0019 nM

Q: What does the source list for `O=C1Nc2ccc([C@@H](O)CN3C[C@H]4C[C@H](Oc5ccccc5)C[C@@]4(O)C3)cc2CS1` (single isomer, unassigned) [Example 14A]?
A: efflux ratio at 120 min, 10 μM (P-glycoprotein (P-gp)): 1.51; IC50 (NR2B): 0.011 nM

Q: For `O=C1CCc2cc([C@@H](O)CN3C[C@@H]4C[C@@H](Oc5cc(F)ccc5F)C[C@]4(O)C3)ccc2N1` (single isomer, unassigned) [Example 26C], which efflux ratio at 120 min, 10 μM (P-glycoprotein (P-gp)) is on record?
A: 3.27

Q: And the IC50 (NR2B)?
A: 1.3 nM

Q: What does the source list for `O=C1CCc2cc([C@@H](O)CN3C[C@@H]4C[C@@H](Oc5ccc(F)cc5F)C[C@]4(O)C3)ccc2N1` (single isomer, unassigned) [Example 25C]?
A: efflux ratio at 120 min, 10 μM (P-glycoprotein (P-gp)): 2.74; IC50 (NR2B): 0.24 nM

Q: What does the source list for `O=C1CCc2cc([C@H](O)CN3C[C@@H]4C[C@@H](Oc5cc(F)ccc5F)C[C@]4(O)C3)ccc2N1` (single isomer, unassigned) [Example 26D]?
A: efflux ratio at 120 min, 10 μM (P-glycoprotein (P-gp)): 2.52; IC50 (NR2B): 1.9 nM

Q: Which efflux ratio at 120 min, 10 μM (P-glycoprotein (P-gp)) does the source give for `O=C1Nc2ccc([C@@H](O)CN3C[C@H]4C[C@H](Oc5ccccc5F)C[C@@]4(O)C3)cc2CO1` (single isomer, unassigned) [Example 41A] here?
A: 1.86

Q: What about the IC50 (NR2B) of the same molecule?
A: 0.3 nM

Q: What does the source list for `O=C1CCCc2cc([C@@H](O)CN3C[C@H]4C[C@H](Oc5ccccc5)C[C@@]4(O)C3)ccc2N1` (single isomer, unassigned) [Example 7A]?
A: efflux ratio at 120 min, 10 μM (P-glycoprotein (P-gp)): 2.73; IC50 (NR2B): 14 nM

Q: Which results are given for `O=c1ccc2cc([C@H](O)CN3C[C@H]4C[C@H](Oc5ccccc5)C[C@@]4(O)C3)ccc2[nH]1` (single isomer, unassigned) [Example 8B]?
A: efflux ratio at 120 min, 10 μM (P-glycoprotein (P-gp)): 3.46; IC50 (NR2B): 0.57 nM
